Data taken from patent US11000033B2, “Ketone or oxime compound, and herbicide” (NISSAN CHEMICAL CORPORATION, priority 2014, dated 2021).

What was measured:
Type in all cases: in vivo
[1] = system: Echinochloa crus-galli var. crus-galli; test: Test Example 3: herbicidal effect by foliage application, Wagner pot (symbol H); details: application herbicide amount 320 g/ha
In short: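 In a shallow-flooded alluvial soil system held at 25–30 °C, plants including rice grew for 14 days and were then sprayed over the foliage with emulsion diluted to a fixed herbicide amount. Visual rating followed at 3 weeks.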

soybean [2] = test: Test Example 4: effect on crop by soil treatment (symbol d); details: application herbicide amount 320 g/ha
In short: (§1)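 Soil-treatment setup: crop and weed seeds were spot-sown into sterilized diluvial soil, then buried beneath approximately 1.5 cm of it, and the boxes were housed in a 25–30° C. greenhouse.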

Abutilon theophrasti = test: Test Example 5: herbicidal effect by foliage application, plastic box (symbol M); details: 320 g/ha, 3 weeks after application
In short: (§2)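 Post-emergence spray; diluvial soil (sterilized), ~1.5 cm seed cover; greenhouse 25–30° C; 14-day-old plants; water-diluted emulsion at predetermined dose; visual score at 3 wk post-treatment.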

Setaria viridis [3] = test: Test Example 5: herbicidal effect by foliage application, plastic box (symbol G); details: 320 g/ha, 3 weeks after application
In short: as §2

soybean [4] = test: Test Example 5: effect on crop by foliage application, plastic box (symbol d); details: 320 g/ha, 3 weeks after application
In short: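 Foliage-application test plants come from spot sowing in sterilized diluvial soil under a soil layer of about 1.5 cm, grown at 25° C. to 30° C. in a greenhouse.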

Monochoria vaginalis = test: Test Example 1: herbicidal activity, application before weed generation in submerged conditions (symbol C); details: application herbicide amount 320 g/ha
In short: (§3)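 Mixed weed seeds sown in alluvial soil under 4 cm of water, with rice seedlings at the 2.5-leaf stage added. Same-day treatment: emulsion diluted to a set herbicide amount onto the water. Three weeks at 25–30 °C, then graded on a six-step scale.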

Avena fatua = test: Test Example 4: herbicidal effect by soil treatment (symbol I); details: application herbicide amount 320 g/ha
In short: (§4)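 Seeds were sown in sterilized diluvial soil, covered with about 1.5 cm of soil, and the soil surface was sprayed with a water-diluted emulsion of the compound at a predetermined rate. Plants grew in a greenhouse at 25° C. to 30° C.; effects were scored visually 3 weeks after application.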

Apera spica-venti = test: Test Example 4: herbicidal effect by soil treatment (symbol L); details: application herbicide amount 320 g/ha
In short: as §4

Amaranthus retroflexus [5] = test: Test Example 5: herbicidal effect by foliage application, plastic box (symbol N); details: 320 g/ha, 3 weeks after application
In short: as §2

beet = test: Test Example 4: effect on crop by soil treatment (symbol f); details: application herbicide amount 320 g/ha
In short: as §1

Galium spurium = test: Test Example 5: herbicidal effect by foliage application, plastic box (symbol Q); details: 320 g/ha, 3 weeks after application
In short: as §2

wheat = test: Test Example 4: effect on crop by soil treatment (symbol e); details: application herbicide amount 320 g/ha
In short: as §1

Scirpus juncoides = test: Test Example 1: herbicidal activity, application before weed generation in submerged conditions (symbol B); details: application herbicide amount 320 g/ha
In short: as §3

Lolium multiflorum Lam. = test: Test Example 4: herbicidal effect by soil treatment (symbol K); details: application herbicide amount 320 g/ha
In short: as §4

Setaria viridis [6] = test: Test Example 4: herbicidal effect by soil treatment (symbol G); details: application herbicide amount 320 g/ha
In short: as §4

Chenopodium album = test: Test Example 5: herbicidal effect by foliage application, plastic box (symbol O); details: 320 g/ha, 3 weeks after application
In short: as §2

Amaranthus retroflexus [7] = test: Test Example 4: herbicidal effect by soil treatment (symbol N); details: application herbicide amount 320 g/ha
In short: as §4

[8] = system: Echinochloa crus-galli var. crus-galli; test: Test Example 5: herbicidal effect by foliage application, plastic box (symbol H); details: 320 g/ha, 3 weeks after application
In short: as §2

| SMILES | herbicidal effect on H (Echinochloa crus-galli var. crus-galli), grade 0-5 [1] | d: soybean, effect on crop grade (soybean [2]) | M: Abutilon theophrasti, herbicidal effect grade (Abutilon theophrasti) | G: Setaria viridis, herbicidal effect grade (Setaria viridis [3]) | d: soybean, effect on crop grade (soybean [4]) | Herbicidal effect grade, C: Monochoria vaginalis (Monochoria vaginalis) | I: Avena fatua, herbicidal effect grade (Avena fatua) | L: Apera spica-venti, herbicidal effect grade (Apera spica-venti) | N: Amaranthus retroflexus, herbicidal effect grade (Amaranthus retroflexus [5]) | f: beet, effect on crop grade (beet) | Q: Galium spurium, herbicidal effect grade (Galium spurium) | e: wheat, effect on crop grade (wheat) | Herbicidal effect grade, B: Scirpus juncoides (Scirpus juncoides) | K: Lolium multiflorum Lam., herbicidal effect grade (Lolium multiflorum Lam.) | G: Setaria viridis, herbicidal effect grade (Setaria viridis [6]) | O: Chenopodium album, herbicidal effect grade (Chenopodium album) | N: Amaranthus retroflexus, herbicidal effect grade (Amaranthus retroflexus [7]) | H: Echinochloa crus-galli var. crus-galli, herbicidal effect grade [8] |
| --- | --- | --- | --- | --- | --- | --- | --- | --- | --- | --- | --- | --- | --- | --- | --- | --- | --- | --- |
| CC#Cc1cc(C)c(C2=C(O)CC(CC(C)=NOC)C2=O)c(C)c1 (mixture of isomers) [6-009] | 5 (Herbicidal ratio of 90% or more (almost completely withered)) | 0 (Herbicidal ratio of 5% or lower (almost no effect)) | 3 (Herbicidal ratio of 40% or higher and lower than 70%) | 5 (Herbicidal ratio of 90% or more (almost completely withered)) | 3 (Herbicidal ratio of 40% or higher and lower than 70%) | 0 (Herbicidal ratio of 5% or lower (almost no effect)) | 4 (Herbicidal ratio of 70% or higher and lower than 90%) | 5 (Herbicidal ratio of 90% or more (almost completely withered)) | 0 (Herbicidal ratio of 5% or lower (almost no effect)) | 2 (Herbicidal ratio of 20% or higher and lower than 40%) | 0 (Herbicidal ratio of 5% or lower (almost no effect)) | 5 (Herbicidal ratio of 90% or more (almost completely withered)) | 2 (Herbicidal ratio of 20% or higher and lower than 40%) | 5 (Herbicidal ratio of 90% or more (almost completely withered)) | 5 (Herbicidal ratio of 90% or more (almost completely withered)) | 2 (Herbicidal ratio of 20% or higher and lower than 40%) | 5 (Herbicidal ratio of 90% or more (almost completely withered)) | 5 (Herbicidal ratio of 90% or more (almost completely withered)) |
| CCc1cc(C#C[Si](C)(C)C)cc(C)c1C1=C(O)CC(CC(C)=NOC)C1=O (mixture of isomers) [6-008] | 5 (Herbicidal ratio of 90% or more (almost completely withered)) | 0 (Herbicidal ratio of 5% or lower (almost no effect)) | 0 (Herbicidal ratio of 5% or lower (almost no effect)) | 5 (Herbicidal ratio of 90% or more (almost completely withered)) | 1 (Herbicidal ratio of 5% or higher and lower than 20%) | 5 (Herbicidal ratio of 90% or more (almost completely withered)) | 4 (Herbicidal ratio of 70% or higher and lower than 90%) | 5 (Herbicidal ratio of 90% or more (almost completely withered)) | 0 (Herbicidal ratio of 5% or lower (almost no effect)) | 0 (Herbicidal ratio of 5% or lower (almost no effect)) | 0 (Herbicidal ratio of 5% or lower (almost no effect)) | 4 (Herbicidal ratio of 70% or higher and lower than 90%) | 5 (Herbicidal ratio of 90% or more (almost completely withered)) | 5 (Herbicidal ratio of 90% or more (almost completely withered)) | 5 (Herbicidal ratio of 90% or more (almost completely withered)) | 0 (Herbicidal ratio of 5% or lower (almost no effect)) | 0 (Herbicidal ratio of 5% or lower (almost no effect)) | 5 (Herbicidal ratio of 90% or more (almost completely withered)) |
| CCc1cc(Br)cc(C)c1C1=C(O)CC(CC(C)=NOC)C1=O (stereo not drawn) [6-001] | 5 (Herbicidal ratio of 90% or more (almost completely withered)) | 0 (Herbicidal ratio of 5% or lower (almost no effect)) | 0 (Herbicidal ratio of 5% or lower (almost no effect)) | 5 (Herbicidal ratio of 90% or more (almost completely withered)) | 0 (Herbicidal ratio of 5% or lower (almost no effect)) | 0 (Herbicidal ratio of 5% or lower (almost no effect)) | 5 (Herbicidal ratio of 90% or more (almost completely withered)) | 5 (Herbicidal ratio of 90% or more (almost completely withered)) | 0 (Herbicidal ratio of 5% or lower (almost no effect)) | 0 (Herbicidal ratio of 5% or lower (almost no effect)) | 0 (Herbicidal ratio of 5% or lower (almost no effect)) | 5 (Herbicidal ratio of 90% or more (almost completely withered)) | 0 (Herbicidal ratio of 5% or lower (almost no effect)) | 5 (Herbicidal ratio of 90% or more (almost completely withered)) | 5 (Herbicidal ratio of 90% or more (almost completely withered)) | 0 (Herbicidal ratio of 5% or lower (almost no effect)) | 0 (Herbicidal ratio of 5% or lower (almost no effect)) | 5 (Herbicidal ratio of 90% or more (almost completely withered)) |
| Cc1cc(C)c(C2=C(O)CC(CC(=O)CC3CC3)C2=O)c(C)c1 (stereo not drawn) [2-026] | 5 (Herbicidal ratio of 90% or more (almost completely withered)) | 0 (Herbicidal ratio of 5% or lower (almost no effect)) | 0 (Herbicidal ratio of 5% or lower (almost no effect)) | 5 (Herbicidal ratio of 90% or more (almost completely withered)) | 0 (Herbicidal ratio of 5% or lower (almost no effect)) | 0 (Herbicidal ratio of 5% or lower (almost no effect)) | 0 (Herbicidal ratio of 5% or lower (almost no effect)) | 2 (Herbicidal ratio of 20% or higher and lower than 40%) | 0 (Herbicidal ratio of 5% or lower (almost no effect)) | 0 (Herbicidal ratio of 5% or lower (almost no effect)) | 0 (Herbicidal ratio of 5% or lower (almost no effect)) | 0 (Herbicidal ratio of 5% or lower (almost no effect)) | 3 (Herbicidal ratio of 40% or higher and lower than 70%) | 5 (Herbicidal ratio of 90% or more (almost completely withered)) | 5 (Herbicidal ratio of 90% or more (almost completely withered)) | 0 (Herbicidal ratio of 5% or lower (almost no effect)) | 0 (Herbicidal ratio of 5% or lower (almost no effect)) | 4 (Herbicidal ratio of 70% or higher and lower than 90%) |
